Experimental data reported in PMC4977651, “Molecular features of biguanides required for targeting of mitochondrial respiratory complex I and activation of AMP-kinase” (BMC Biology, 2016).
“And” between values parts separate entries of the source, which are not always exact repeats. Identical values can stand only once.

Legend:
[1] = tested on: AMPK-α (phospho-Thr172); experiment: AMPK activation, western blot of phospho-AMPK-α in MDBK cells; assay type: cell-based, Bos taurus; details: for p-alpha: band intensity
Protocol: (§1) MDBK cells were seeded at 1 × 10^6 cells per 6 cm dish in DMEM containing 10 % FBS. […] After 18 h cells were harvested by a rapid lysis procedure: cells were rinsed with PBS, then lysed using ice-cold buffer containing 50 mM HEPES, 1 mM EDTA, 10 % glycerol, 50 mM NaF, 5 mM sodium pyrophosphate, 1 % Triton-X100, 1 mM dithiothreitol (DTT), and a protease inhibitor cocktail (Roche). The cell lysate was centrifuged at 14,000 × g for 20 min at 4 °C and the protein concentration of the supernatant determined by bicinchoninic acid assay. The lysate was analyzed using Novex 3–12 % bis-Tris gels run in 3-(N-morpholino)propanesulfonic acid (MOPS) buffer (20 μg of protein per lane) followed by transfer to low fluorescence polyvinylidene fluoride membranes by wet transfer. Primary rabbit antibodies for AMPK-β (57C12), AMPK-α (phospho-Thr172) (40H9), and acetyl-coA carboxylase (phospho-Ser79) (Cell Signaling Technology) were incubated overnight with the membrane (1:1000 dilution) in Odyssey blocking buffer at 4 °C. A fluorescent secondary antibody was used (IRDYE800CW from LI-COR Biosciences, 1:20,000 dilution) with a LI-COR Odyssey imaging system.

[2] = tested on: acetyl-coA carboxylase (phospho-Ser79); experiment: AMPK activation, western blot of phospho-acetyl-coA carboxylase in MDBK cells; assay type: cell-based, Bos taurus; details: for p-ACC: band intensity
Protocol: as §1

[3] = tested on: bovine mitochondrial membranes (complexes II-III-IV); experiment: Succinate:O2 oxidoreduction (complexes II-III-IV, complex II assay) by bovine mitochondrial membranes; assay type: biochemical, Bos taurus; details: biguanide concentrations set to the IC50 values for NADH:O2 on bovine membranes; control = 100.00; n = 3
Protocol: Assays were performed at 32 °C in a SpectraMax 96-well plate reader. NADH:decylubiquinone oxidoreduction by complex I at 0.5 μg mL^−1 was measured in 20 mM Tris-HCl (pH 7.2), 0.15 % soy bean asolectin (Avanti Polar Lipids), and 0.15 % 3-((3-cholamidopropyl)dimethylammonium)-1-propanesulfonate (CHAPS, Merck Chemicals Ltd), with 200 μM decylubiquinone and 200 μM NADH, and monitored using ε340–380(NADH) = 4.81 mM^−1 cm^−1 [23]. Catalysis was initiated by addition of NADH and maximal rates determined by linear regression. NADH:O2 oxidoreduction by membranes was measured similarly but using 5 μg mL^−1 membranes in 10 mM Tris-HCl (pH 7.4) and 250 mM sucrose using 200 μM NADH and supplemented with 0.15 mM horse heart cytochrome c (Sigma-Aldrich Ltd.). Succinate:O2 oxidoreduction was measured using 40 μg mL^−1 membranes in 5 mM succinate in 10 mM Tris-HCl (pH 7.4) as described previously. Control experiments included NaCl (to match the ionic strength) or DMSO, as appropriate.

[4] = tested on: mouse heart mitochondria; experiment: ADP-stimulated rotenone-sensitive OCR in isolated mouse heart mitochondria; assay type: biochemical; parameters: rotenone sensitive OCR after ADP stimulation, individual replicates / rotenone sensitive OCR after ADP stimulation, average / rotenone sensitive OCR after 15 mins, average: unit not given here
Protocol: Complex I and mitochondrial membranes were prepared from Bos taurus (bovine) heart. Intact mitochondria were isolated from rat liver and mouse heart and liver. Membranes were prepared from mouse heart mitochondria by 5 s bursts of sonication at 4 °C and collected by centrifugation (75,000 × g, 1 h).
Isolated mitochondria were monitored using a Seahorse XF96 extracellular flux analyzer at 32 °C. Mouse heart mitochondria, and mouse and rat liver mitochondria were plated into XF96 plates at 4 and 16–20 μg per well, respectively, in 220 mM mannitol, 70 mM sucrose, 10 mM KH2PO4, 5 mM MgCl2, 1 mM EGTA, 0.2 % fatty acid-free BSA, and 2 mM HEPES (pH 7.4 at 37 °C) with 10 mM glutamate and 10 mM malate and adhered by centrifugation (2000 × g, 20 min, 4 °C). The medium was supplemented with a further 5 mM glutamate and 5 mM malate and the mitochondria incubated for 15 min. Then two baseline readings were taken before the biguanides were added at IC50/5. […] Rotenone (2 μM) was added at the end of the experiment. Data from wells with failed port injections were excluded from the analyses. The RCR values (state III versus state IV respiration) were 3.4, 4.8, and 4.6 for mouse heart, rat liver, and mouse liver, respectively.

[5] = tested on: permeabilized 143B cells; experiment: ADP-stimulated rotenone-sensitive OCR in permeabilized 143B cells; assay type: cell-based, human; parameters: rotenone sensitive OCR after ADP stimulation, individual replicates / rotenone sensitive OCR after ADP stimulation, average: unit not given here
Protocol: For permeabilized cell experiments, cells were seeded into XF96 plates at 0.9–1.1 × 10^4 per well and incubated for 48 h at 37 °C in 5 % CO2. Then, the growth medium was exchanged for assay buffer containing 3 nM plasma membrane permeabilizer ‘PMP’ (Seahorse Biosciences Inc.), 10 mM glutamate, 10 mM malate, 220 mM mannitol, 70 mM sucrose, 10 mM KH2PO4, 5 mM MgCl2, 1 mM EGTA, 0.2 % fatty acid-free bovine serum albumin (BSA), and 2 mM HEPES (pH 7.4 at 37 °C). […] The biguanides were allowed to accumulate for 30 min, then respiration was […] by the addition of 4 mM ADP. Rotenone was added (2 μM) at the end of the experiment.
Rotenone-sensitive OCRs were calculated by subtracting the rotenone-insensitive rates (determined at the end of the experiment). OCRs were normalized by dividing by the OCR recorded immediately prior to the addition of biguanide. For rate of uptake calculations, the OCRs at time points after biguanide addition were divided by the OCRs at the same time points in control experiments. Data from wells with failed port injections were excluded from the analyses. The respiratory control ratio (RCR) values (state III versus state IV respiration) were ~11 and ~6 for permeabilized MDBK and 143B cells, respectively.

[6] = Averages of experiments 1-3, 18 hours
[7] = 143B permeabilised cells, average of replicates
[8] = 143B permeabilised cells, replicate 1-11

SMILES: [H]/N=C(\N/C(=N/[H])Nc1ccc(Cl)cc1)NC(C)C [proguanil, reference compound]
- p-alpha, average normalised to control [1, 6]: 1.33
- p-alpha / AMPK beta ([1]; Experiment 1, 18 hours): 0.15
- p-alpha / AMPK beta normalised to control ([1]; Experiment 1, 18 hours): 1.20
- p-alpha ([1]; Experiment 1, 18 hours): 71.3
- p-alpha / AMPK beta ([1]; Experiment 2, 18 hours): 0.19
- p-alpha / AMPK beta normalised to control ([1]; Experiment 2, 18 hours): 1.32
- p-alpha ([1]; Experiment 2, 18 hours): 68.2
- p-alpha / AMPK beta ([1]; Experiment 3, 18 hours): 0.30
- p-alpha / AMPK beta normalised to control ([1]; Experiment 3, 18 hours): 1.47
- p-alpha ([1]; Experiment 3, 18 hours): 59.7
- ACC, average normalised to control [2, 6]: 1.76
- p-ACC / AMPK beta ([2]; Experiment 1, 18 hours): 0.34
- p-ACC / AMPK beta normalised to control ([2]; Experiment 1, 18 hours): 1.73
- p-ACC ([2]; Experiment 1, 18 hours): 161
- p-ACC / AMPK beta ([2]; Experiment 2, 18 hours): 0.32
- p-ACC / AMPK beta normalised to control ([2]; Experiment 2, 18 hours): 1.97
- p-ACC ([2]; Experiment 2, 18 hours): 112
- p-ACC / AMPK beta ([2]; Experiment 3, 18 hours): 0.47
- p-ACC / AMPK beta normalised to control ([2]; Experiment 3, 18 hours): 1.56
- p-ACC ([2]; Experiment 3, 18 hours): 91.3
- Complex II assay (succinate:O2 oxidoreduction), average [3]: 95.35
- rotenone sensitive OCR after ADP stimulation, % of control, average ([4]; average of replicates): 99.28 % of control
- rotenone sensitive OCR after ADP stimulation, average ([4]; average of replicates): 240.45
- rotenone sensitive OCR after ADP stimulation, % of control, individual replicates ([4]; replicate 1-11): 98.46 % of control and 125.69 % of control and 95.82 % of control and 99.56 % of control and 95.47 % of control and 84.72 % of control and 105.21 % of control and 89.32 % of control
- rotenone sensitive OCR after ADP stimulation, individual replicates ([4]; replicate 1-12): 238.46 and 304.41 and 232.07 and 241.13 and 231.22 and 205.20 and 254.80 and 216.32
- rotenone sensitive OCR after ADP stimulation, % of control, average [5, 7]: 106.21 % of control
- rotenone sensitive OCR after ADP stimulation, average [5, 7]: 253.55
- rotenone sensitive OCR after ADP stimulation, % of control, individual replicates [5, 8]: 79.43 % of control and 103.02 % of control and 144.04 % of control and 93.57 % of control and 102.53 % of control and 101.42 % of control and 111.43 % of control and 105.36 % of control and 115.13 % of control
- rotenone sensitive OCR after ADP stimulation, individual replicates [5, 8]: 189.61 and 245.92 and 343.85 and 223.38 and 244.75 and 242.11 and 266.00 and 251.51 and 274.84
- inhibition of the OCR (in words) ([5]; permeabilized 143B cells, biguanide concentration equal to IC50): only limited inhibition
